Reference: patent US9149475B2, “Protein kinase C inhibitors and uses thereof” (Rigel Pharmaceuticals, Inc., priority 2009, dated 2015)

These compounds were tested on Human primary T cells (assay: IL-2 ELISA, human primary T cell, anti-CD3+CD28+ (whole cell assay)). Settings: Homo sapiens, T-cell, 24 h, human primary T cells stimulated with anti-CD3 + anti-CD28, 24 hours.
Type: cell-based
Method in brief: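 IL-2 secreted over 24 h at 37° C was quantified by ELISA after plate-bound αCD3 (1 μg/ml) and αCD28 (5 μg/ml) stimulation, or PMA (0.5 ng/ml) with ionomycin (0.1 μM) as counter-screen. Cells were IL-2-starved primary human T cells, expanded from volunteer PBMC and exposed to compound for 1 hr beforehand.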

| Compound | IC50 |
| --- | --- |
| CN1C(C)(C)CC(Nc2nc(Nc3ccc(OC(C)(C)CCN4CCCC4)c(F)c3)ncc2F)CC1(C)C [III-47, 5-fluoro-N2-(3-fluoro-4-(2-methyl-4-(pyrrolidin-1-yl)butan-2-yloxy)phenyl)-N4-(1,2,2,6,6-pentamethylpiperidin-4-yl)pyrimidine-2,4-diamine] | 500 to 1000 nM |
| CC1(C)CC(Nc2nc(Nc3cc(F)c(OC(C)(C)CCN4CCCC4)c(F)c3)ncc2F)CC(C)(C)N1 [III-48, N2-(3,5-difluoro-4-(2-methyl-4-(pyrrolidin-1-yl)butan-2-yloxy)phenyl)-5-fluoro-N4-(2,2,6,6-tetramethylpiperidin-4-yl)pyrimidine-2,4-diamine] | > 1000 nM |
| CN1C(C)(C)CC(Nc2nc(Nc3cc(F)c(OC(C)(C)CCN4CCCC4)c(F)c3)ncc2F)CC1(C)C [III-49, N2-(3,5-difluoro-4-(2-methyl-4-(pyrrolidin-1-yl)butan-2-yloxy)phenyl)-5-fluoro-N4-(1,2,2,6,6-pentamethylpiperidin-4-yl)pyrimidine-2,4-diamine] | > 1000 nM |
| CC1(C)CC(Nc2nc(Nc3ccc(OC4CCN(CCF)CC4)c(OC(F)F)c3)ncc2F)CC(C)(C)N1 [III-50, N2-(3-(difluoromethoxy)-4-(1-(2-fluoroethyl)piperidin-4-yloxy)phenyl)-5-fluoro-N4-(2,2,6,6-tetramethylpiperidin-4-yl)pyrimidine-2,4-diamine] | 250 to 500 nM |
| CN1C(C)(C)CC(Nc2nc(Nc3ccc(OC4CCN(CCF)CC4)c(OC(F)F)c3)ncc2F)CC1(C)C [III-51, N2-(3-(difluoromethoxy)-4-(1-(2-fluoroethyl)piperidin-4-yloxy)phenyl)-5-fluoro-N4-(1,2,2,6,6-pentamethylpiperidin-4-yl)pyrimidine-2,4-diamine] | < 250 nM |
| CN1C(C)(C)CC(Nc2nc(Nc3ccc(OC4CCN(Cc5ccccc5)CC4)c(OC(F)F)c3)ncc2F)CC1(C)C [III-52, N2-(4-(1-benzylpiperidin-4-yloxy)-3-(difluoromethoxy)phenyl)-5-fluoro-N4-(1,2,2,6,6-pentamethylpiperidin-4-yl)pyrimidine-2,4-diamine] | 250 to 500 nM |
| CC1(C)CC(Nc2nc(Nc3ccc(OC4CCN(CCOCc5ccccc5)CC4)c(F)c3)ncc2F)CC(C)(C)N1 [III-53, N2-(4-(1-(2-(benzyloxy)ethyl)piperidin-4-yloxy)-3-fluorophenyl)-5-fluoro-N4-(2,2,6,6-tetramethylpiperidin-4-yl)pyrimidine-2,4-diamine] | 500 to 1000 nM |
| CN1C(C)(C)CC(Nc2nc(Nc3ccc(OC4CCN(CCOCc5ccccc5)CC4)c(F)c3)ncc2F)CC1(C)C [III-54, N2-(4-(1-(2-(benzyloxy)ethyl)piperidin-4-yloxy)-3-fluorophenyl)-5-fluoro-N4-(1,2,2,6,6-pentamethylpiperidin-4-yl)pyrimidine-2,4-diamine] | 500 to 1000 nM |
| CC1(C)CC(Nc2nc(Nc3cc(F)c(OC4CCN(CCOCc5ccccc5)CC4)c(F)c3)ncc2F)CC(C)(C)N1 [III-55, N2-(4-(1-(2-(benzyloxy)ethyl)piperidin-4-yloxy)-3,5-difluorophenyl)-5-fluoro-N4-(2,2,6,6-tetramethylpiperidin-4-yl)pyrimidine-2,4-diamine] | 500 to 1000 nM |
| CN1C(C)(C)CC(Nc2nc(Nc3cc(F)c(OC4CCN(CCOCc5ccccc5)CC4)c(F)c3)ncc2F)CC1(C)C [III-56, N2-(4-(1-(2-(benzyloxy)ethyl)piperidin-4-yloxy)-3,5-difluorophenyl)-5-fluoro-N4-(1,2,2,6,6-pentamethylpiperidin-4-yl)pyrimidine-2,4-diamine] | 500 to 1000 nM |
| CC1(C)CC(Nc2nc(Nc3ccc(OC4CCN(CCO)CC4)c(F)c3)ncc2F)CC(C)(C)N1 [III-57, 2-(4-(2-fluoro-4-(5-fluoro-4-(2,2,6,6-tetramethylpiperidin-4-ylamino)pyrimidin-2-ylamino)phenoxy)piperidin-1-yl)ethanol] | > 1000 nM |
| CN1C(C)(C)CC(Nc2nc(Nc3ccc(OC4CCN(CCO)CC4)c(F)c3)ncc2F)CC1(C)C [III-58, 2-(4-(2-fluoro-4-(5-fluoro-4-(1,2,2,6,6-pentamethylpiperidin-4-ylamino)pyrimidin-2-ylamino)phenoxy)piperidin-1-yl)ethanol] | 500 to 1000 nM |
| CC1(C)CC(Nc2nc(Nc3cc(F)c(OC4CCN(CCO)CC4)c(F)c3)ncc2F)CC(C)(C)N1 [III-59, 2-(4-(2,6-difluoro-4-(5-fluoro-4-(2,2,6,6-tetramethylpiperidin-4-ylamino)pyrimidin-2-ylamino)phenoxy)piperidin-1-yl)ethanol] | > 1000 nM |
| CN1C(C)(C)CC(Nc2nc(Nc3cc(F)c(OC4CCN(CCO)CC4)c(F)c3)ncc2F)CC1(C)C [III-60, 2-(4-(2,6-difluoro-4-(5-fluoro-4-(1,2,2,6,6-pentamethylpiperidin-4-ylamino)pyrimidin-2-ylamino)phenoxy)piperidin-1-yl)ethanol] | 250 to 500 nM |
| CC(C)Nc1cc(Nc2ncc(F)c(NC3CC(C)(C)NC(C)(C)C3)n2)ccc1OC(C)C [III-61, 5-fluoro-N2-(4-isopropoxy-3-(isopropylamino)phenyl)-N4-(2,2,6,6-tetramethylpiperidin-4-yl)pyrimidine-2,4-diamine] | > 1000 nM |
| CC(C)Nc1cc(Nc2ncc(F)c(NC3CC(C)(C)N(C)C(C)(C)C3)n2)ccc1OC(C)C [III-62, 5-fluoro-N2-(4-isopropoxy-3-(isopropylamino)phenyl)-N4-(1,2,2,6,6-pentamethylpiperidin-4-yl)pyrimidine-2,4-diamine] | > 1000 nM |

| Compound | IC50 |
| --- | --- |
| Cc1ccc(Nc2ncc(F)c(NC3CC(C)(C)NC(C)(C)C3)n2)cc1-c1nnnn1C [III-63, 5-fluoro-N2-(4-methyl-3-(1-methyl-1H-tetrazol-5-yl)phenyl)-N4-(2,2,6,6-tetramethylpiperidin-4-yl)pyrimidine-2,4-diamine] | 250 to 500 nM |
| Cc1ccc(Nc2ncc(F)c(NC3CC(C)(C)N(C)C(C)(C)C3)n2)cc1-c1nnnn1C [III-64, 5-fluoro-N2-(4-methyl-3-(1-methyl-1H-tetrazol-5-yl)phenyl)-N4-(1,2,2,6,6-pentamethylpiperidin-4-yl)pyrimidine-2,4-diamine] | < 250 nM |
| CC(C)Oc1ccc(Nc2ncc(F)c(NC3CC(C)(C)NC(C)(C)C3)n2)cc1N(C)C(C)C [III-65, 5-fluoro-N2-(4-isopropoxy-3-(isopropyl(methyl)amino)phenyl)-N4-(2,2,6,6-tetramethylpiperidin-4-yl)pyrimidine-2,4-diamine] | > 1000 nM |
| CC(C)Oc1ccc(Nc2ncc(F)c(NC3CC(C)(C)N(C)C(C)(C)C3)n2)cc1N(C)C(C)C [III-66, 5-fluoro-N2-(4-isopropoxy-3-(isopropyl(methyl)amino)phenyl)-N4-(1,2,2,6,6-pentamethylpiperidin-4-yl)pyrimidine-2,4-diamine] | > 1000 nM |
| CCc1nnnn1-c1cc(Nc2ncc(F)c(NC3CC(C)(C)NC(C)(C)C3)n2)ccc1OC(F)F [III-67, N2-(4-(difluoromethoxy)-3-(5-ethyl-1H-tetrazol-1-yl)phenyl)-5-fluoro-N4-(2,2,6,6-tetramethylpiperidin-4-yl)pyrimidine-2,4-diamine] | 250 to 500 nM |
| CN1C(C)(C)CC(Nc2nc(Nc3cccc(-c4nn[nH]n4)c3)ncc2F)CC1(C)C [III-68, N2-(3-(2H-tetrazol-5-yl)phenyl)-5-fluoro-N4-(1,2,2,6,6-pentamethylpiperidin-4-yl)pyrimidine-2,4-diamine] | > 1000 nM |
| CC1(C)CC(Nc2nc(Nc3cccc(-c4nn[nH]n4)c3)ncc2F)CC(C)(C)N1 [III-69, N2-(3-(2H-tetrazol-5-yl)phenyl)-5-fluoro-N4-(2,2,6,6-tetramethylpiperidin-4-yl)pyrimidine-2,4-diamine] | > 1000 nM |
| CC(C)n1nnnc1-c1cccc(Nc2ncc(F)c(NC3CC(C)(C)N(C)C(C)(C)C3)n2)c1 [III-70, 5-fluoro-N2-(3-(1-isopropyl-1H-tetrazol-5-yl)phenyl)-N4-(1,2,2,6,6-pentamethylpiperidin-4-yl)pyrimidine-2,4-diamine] | < 250 nM |
| CC(C)n1nnnc1-c1cccc(Nc2ncc(F)c(NC3CC(C)(C)NC(C)(C)C3)n2)c1 [III-71, 5-fluoro-N2-(3-(1-isopropyl-1H-tetrazol-5-yl)phenyl)-N4-(2,2,6,6-tetramethylpiperidin-4-yl)pyrimidine-2,4-diamine] | 500 to 1000 nM |
| CN1C(C)(C)CC(Nc2nc(Nc3cccc(-c4nnnn4C4CC4)c3)ncc2F)CC1(C)C [III-72, N2-(3-(1-cyclopropyl-1H-tetrazol-5-yl)phenyl)-5-fluoro-N4-(1,2,2,6,6-pentamethylpiperidin-4-yl)pyrimidine-2,4-diamine] | < 250 nM |
| CC1(C)CC(Nc2nc(Nc3cccc(-c4nnnn4C4CC4)c3)ncc2F)CC(C)(C)N1 [III-73, N2-(3-(1-cyclopropyl-1H-tetrazol-5-yl)phenyl)-5-fluoro-N4-(2,2,6,6-tetramethylpiperidin-4-yl)pyrimidine-2,4-diamine] | 500 to 1000 nM |
| CN1C(C)(C)CC(Nc2nc(Nc3cccc(-c4nnnn4CCF)c3)ncc2F)CC1(C)C [III-74, 5-fluoro-N2-(3-(1-(2-fluoroethyl)-1H-tetrazol-5-yl)phenyl)-N4-(1,2,2,6,6-pentamethylpiperidin-4-yl)pyrimidine-2,4-diamine] | 250 to 500 nM |
| CC1(C)CC(Nc2nc(Nc3cccc(-c4nnnn4CCF)c3)ncc2F)CC(C)(C)N1 [III-75, 5-fluoro-N2-(3-(1-(2-fluoroethyl)-1H-tetrazol-5-yl)phenyl)-N4-(2,2,6,6-tetramethylpiperidin-4-yl)pyrimidine-2,4-diamine] | 500 to 1000 nM |
| CN1C(C)(C)CC(Nc2nc(Nc3cccc(-c4nnnn4CCN4CCOCC4)c3)ncc2F)CC1(C)C [III-76, 5-fluoro-N2-(3-(1-(2-morpholinoethyl)-1H-tetrazol-5-yl)phenyl)-N4-(1,2,2,6,6-pentamethylpiperidin-4-yl)pyrimidine-2,4-diamine] | 500 to 1000 nM |
| CC1(C)CC(Nc2nc(Nc3cccc(-c4nnnn4CCN4CCOCC4)c3)ncc2F)CC(C)(C)N1 [III-77, 5-fluoro-N2-(3-(1-(2-morpholinoethyl)-1H-tetrazol-5-yl)phenyl)-N4-(2,2,6,6-tetramethylpiperidin-4-yl)pyrimidine-2,4-diamine] | > 1000 nM |
